According to US20240308995A1, “O-GLYCOPROTEIN-2-ACETAMIDO-2-DEOXY-3-D-GLUCOPYRANOSIDASE INHIBITORS” (BIOGEN MA INC., priority 2018, published 2024):
pIC50: −log10 of the molar value. Like-named read-outs stand apart in the source and are kept apart here.

Legend:
[1] = target: Recombinant full length human OGA enzyme (Homo sapiens (Human), UniProt O60502); experiment: OGA Enzyme Inhibition Biochemical Assay; conditions: 1 nM OGA, 100 μM 4-MUGlcNAc, pH 6.4
In short: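 Full-length recombinant human OGA with fluorogenic 4-MUGlcNAc in McIlvaine buffer pH 6.4, 0.01% BSA; 90 min at room temperature, glycine pH 10 quench, fluorescence Ex 355/Em 460 nm. 10-point, 4-fold dilution from 20 μM; 4-parameter variable-slope fit.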

[2] = target: OGA (S400 O-GLCNAC), HEK-293T cells transfected with Tau-V5 (Homo sapiens (Human), UniProt O60502); experiment: Cellular OGA-Tau MSD Assay; type: cell-based
In short: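 HEK-293T cells transfected with OGA and Tau-V5 plasmids were treated overnight at 37° C with a 10-point, 3-fold titration from 1 uM. Lysates went onto V5-antibody MSD plates to capture Tau, probed with a Tau O-GlcNAc antibody and read by electrochemiluminescence; IC50 from a 4-parameter fit.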

P-gp (MDR1) = experiment: MDR1-MDCK Efflux Ratio Assay; type: in vitro ADME; conditions: dog, read-out: MDR1-MDCK Efflux Ratio (B-A/A-B)
In short: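 Bidirectional (apical↔basolateral) transport across confluent MDR1-MDCK monolayers in HBSS/10 mM HEPES pH 7.4, receiver buffer with 1% BSA; 2 hr at 37° C, 5% CO2. Donor sampled at 0 and 120 min, receiver at 120 min, quantified by LC-MS/MS in triplicate. Papp, efflux ratio and percent recovery calculated.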

[3] = Rat Liver Microsome Stability Assay; type: in vitro ADME; conditions: rat liver microsomes, 1 uM compound
[4] = HEK-293T cells, Tau-S400-GlcNAc MSD readout
[5] = MDCK-MDR1, pH 7.4, MDR1-MDCK cells, 2 hr, pH 7.4

Sequence of OGA (S400 O-GLCNAC), HEK-293T cells transfected with Tau-V5 (O60502 whole entry): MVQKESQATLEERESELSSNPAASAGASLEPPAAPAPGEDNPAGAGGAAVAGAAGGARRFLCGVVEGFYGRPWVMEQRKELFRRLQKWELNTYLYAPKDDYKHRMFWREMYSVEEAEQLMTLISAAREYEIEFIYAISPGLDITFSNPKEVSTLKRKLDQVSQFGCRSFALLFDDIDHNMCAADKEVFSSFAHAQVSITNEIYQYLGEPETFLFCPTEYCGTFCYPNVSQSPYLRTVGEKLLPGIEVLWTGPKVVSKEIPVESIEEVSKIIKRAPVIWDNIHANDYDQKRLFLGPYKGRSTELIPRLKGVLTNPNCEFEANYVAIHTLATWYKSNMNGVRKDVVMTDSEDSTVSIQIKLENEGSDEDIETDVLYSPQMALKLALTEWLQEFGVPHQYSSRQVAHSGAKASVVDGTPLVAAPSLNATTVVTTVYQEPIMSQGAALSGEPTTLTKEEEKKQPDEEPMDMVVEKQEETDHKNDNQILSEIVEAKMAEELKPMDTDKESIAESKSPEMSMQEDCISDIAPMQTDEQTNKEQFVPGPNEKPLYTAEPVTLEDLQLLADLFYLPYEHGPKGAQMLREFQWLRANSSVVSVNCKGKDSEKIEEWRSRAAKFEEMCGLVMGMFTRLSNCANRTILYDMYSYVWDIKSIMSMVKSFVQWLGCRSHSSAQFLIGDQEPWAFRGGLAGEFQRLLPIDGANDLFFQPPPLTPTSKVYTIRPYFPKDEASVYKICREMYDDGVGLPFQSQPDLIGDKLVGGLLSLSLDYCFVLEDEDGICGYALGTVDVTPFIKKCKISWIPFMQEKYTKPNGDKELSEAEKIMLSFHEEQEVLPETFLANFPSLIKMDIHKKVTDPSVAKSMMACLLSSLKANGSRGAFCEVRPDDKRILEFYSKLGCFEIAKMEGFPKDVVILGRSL
Sequence of Recombinant full length human OGA enzyme (O60502 whole entry): as above

SMILES | pIC50 [1] | pIC50 [2, 4] | efflux ratio at 2 h (P-gp (MDR1); [5]) | RLM % Qh (%) [3] | pIC50 ([2]; repeated assay, value marked with asterisk (*)) | efflux ratio at 2 h (P-gp (MDR1); MDCK-MDR1, pH 7.4, repeated assay, value marked with asterisk (*))
CC(=O)Nc1nc(F)c(CN2CC[C@@H](Oc3cc(C)nc(C)c3)C2)s1 [Example 1-49, (R)—N-(5-((3-((2,6-dimethylpyridin-4-yl)oxy)pyrrolidin-1-yl)methyl)-4-fluorothiazol-2-yl)acetamide] | > 9.00 | 8.00 | 18.9 | 34% | – | –
CC(=O)Nc1ncc(CN2C[C@H](Oc3cc(C)nc(C)c3)C[C@@H]2C)s1 [Example 1-60, N-(5-(((2S,4R)-4-((2,6-dimethylpyridin-4-yl)oxy)-2-methylpyrrolidin-1-yl)methyl)thiazol-2-yl)acetamide] | > 9.00 | 9.00 | 21.3 | 56% | – | –
CC(=O)Nc1ncc(CN2C[C@H](Oc3cc(NC4CCC4)ncn3)C[C@@H]2C)s1 [Example 1-134, N-(5-(((2S,4R)-4-((6-(cyclobutylamino)pyrimidin-4-yl)oxy)-2-methylpyrrolidin-1-yl)methyl)thiazol-2-yl)acetamide] | > 9.00 | 9.00 | 53.4 | 70% | – | –
CC(=O)Nc1nc(F)c(CN2C[C@H](Oc3ncc(Cl)cn3)C[C@@H]2C)s1 [Example 1-95, N-(5-(((2S,4R)-4-((5-chloropyrimidin-2-yl)oxy)-2-methylpyrrolidin-1-yl)methyl)-4-fluorothiazol-2-yl)acetamide] | > 9.00 | 9.00 | 3.6 | 72% | – | –
CC(=O)Nc1ncc(CN2C[C@H](Oc3cc(N(C)C)ncn3)C[C@@H]2C)s1 [Example 1-131, N-(5-(((2S,4R)-4-((6-(dimethylamino)pyrimidin-4-yl)oxy)-2-methylpyrrolidin-1-yl)methyl)thiazol-2-yl)acetamide] | > 9.00 | 9.00 | 17.8 | 58% | – | –
COc1cc(O[C@H]2C[C@@H](C)N(Cc3cnc(NC(C)=O)s3)C2)ncn1 [Example 1-40, N-(5-(((2R,4S)-4-((6-methoxypyrimidin-4-yl)oxy)-2-methylpyrrolidin-1-yl)methyl)thiazol-2-yl)acetamide] | 6.14 | < 6.00 | 5.3 | 20% | – | –
CC(=O)Nc1ncc(CN2C[C@H](Oc3ccnc(OC(F)F)c3)C[C@@H]2C)s1 [Example 1-20, N-(5-(((2S,4R)-4-((2-(difluoromethoxy)pyridin-4-yl)oxy)-2-methylpyrrolidin-1-yl)methyl)thiazol-2-yl)acetamide] | > 9.00 | – | 2.9 | 63% | 8.15 | 3
COc1ccc(O[C@@H]2C[C@H](C)N(Cc3sc(NC(C)=O)nc3F)C2)cn1 [Example 1-114, N-(4-fluoro-5-(((2S,4R)-4-((6-methoxypyridin-3-yl)oxy)-2-methylpyrrolidin-1-yl)methyl)thiazol-2-yl)acetamide] | > 9.00 | 8.70 | 1.9 | 69% | – | –
CC(=O)Nc1nc(F)c(CN2C[C@@H](Oc3cc(C)nc(C)c3)C[C@H]2C)s1 [Example 1-53, N-(5-(((2R,4S)-4-((2,6-dimethylpyridin-4-yl)oxy)-2-methylpyrrolidin-1-yl)methyl)-4-fluorothiazol-2-yl)acetamide] | 5.77 | < 6.00 | 21.8 | 26% | – | –
COc1cc(O[C@H]2CC[C@H](C)N(Cc3sc(NC(C)=O)nc3F)C2)ncn1 [Example 1-34, N-(4-fluoro-5-(((2S,5S)-5-((6-methoxypyrimidin-4-yl)oxy)-2-methylpiperidin-1-yl)methyl)thiazol-2-yl)acetamide] | > 9.00 | 8.70 | 4.1 | 90% | – | –
